In patent US20240398764A1, “METHODS OF TREATING DISEASES ASSOCIATED WITH SENESCENT CELL ACCUMULATION” (University of Florida Research Foundation, Incorporated, priority 2021, published 2024):

Columns and labels:
[1] = system: senescent cells induced by STZ/HFD in the liver; assay: Senescent cell clearance in livers of STZ/HFD mice (p16/p21 mRNA, SA-β-gal staining); type: in vivo, C57BL6 mice; conditions: 5 mg/kg twice a week IP
Procedure: GAPDH was used as a loading control. FIG. 6B depicts the relative expression of p16 and p21 at mRNA levels in the livers of STZ/HFD mice treated with 753b or vehicle control. *p<0.05. FIGS. 6C to 6D show senescence-associated beta-galactosidase (SA-β-gal) stained livers of STZ/HFD mice treated with vehicle control (FIG. 6C) or 753b (FIG. 6D). Scale bar: […].
Experimental design: C57BL6 mice were injected with Streptozotocin (STZ) at postnatal day 2 to induce diabetes and then fed with HFD from postnatal day 30 till the end of the experiments (FIG. 5). Half of the mice started receiving vehicle and the others receiving 753b (5 mg/kg) treatment on postnatal day 45 twice a week by IP injection till the end of the experiments. A group of the mice were euthanized at postnatal day 90 (or day 45 after the initiation of the treatment) for analysis of senescent cell accumulation and steatosis. Another group of the mice were euthanized at postnatal day 150 (or day 105 after the initiation of the treatment) for analysis of liver fibrosis and cancer.
753b effectively clears senescent cells induced by STZ/HFD in the liver. The liver tissues were collected from mice at postnatal day 90 (p90 or 45 days after treatment) for the analyses. […] Data were means±SD of triplicate experiments.

[2] = target: T1, Bcl-xl (Homo sapiens, UniProt Q07817); assay: Immunoblot of Bcl-xl degradation in human platelets; type: cell-based; parameters: endogenous in cells; host or cells: human platelets; conditions: different concentrations, 16 h
T1 sequence (Q07817 whole entry): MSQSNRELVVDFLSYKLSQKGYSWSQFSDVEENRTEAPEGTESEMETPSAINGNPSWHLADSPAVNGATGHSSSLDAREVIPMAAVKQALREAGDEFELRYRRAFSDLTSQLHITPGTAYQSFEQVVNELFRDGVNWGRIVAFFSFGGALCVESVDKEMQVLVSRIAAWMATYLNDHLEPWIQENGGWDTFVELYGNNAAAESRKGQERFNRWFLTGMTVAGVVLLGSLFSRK
Description: (§1) FIG. 2A depicts immunoblots showing degradation of Bcl-xl and Bcl-2 in non-senescent WI-38 fibroblast cells (Non-SnCs) treated with varying concentrations of 753b. 3-actin was used as a loading control. FIG. 2B depicts viability of Non-SnCs treated with varying concentrations of 753b or ABT263. FIG. 2C depicts immunoblots showing degradation of Bcl-xl and Bcl-2 in ionizing radiation-induced senescent WI-38 fibroblast cells (IR-SnCs) treated with varying concentrations of 753b. 3-actin was used as a loading control. FIG. 2D depicts viability of IR-SnCs treated with varying concentrations of 753b or ABT263. FIG. 2E depicts immunoblots showing degradation of Bcl-xl and Bcl-2 in human platelets treated with varying concentrations of 753b. FIG. 2F depicts viability of human platelets treated with varying concentrations of 753b or ABT263.
(§2) The potency of 753b in degrading Bcl-xl/2 was evaluated by immunoblots after the cells or platelets were treated with different concentrations of 753b for 16 h ([…]). 753b is more cytotoxic to IR-SnCs but less toxic to Non-SnCs and platelets. The viability of Non-SnCs, IR-SnCs and platelets was measured 72 hr (Non-SnCs and IR-SnCs) and 48 hr (platelets) after they were incubated with increasing concentrations of 753b or ABT263 compared to cells/platelets with vehicle.

[3] = target: Bcl-2 (Homo sapiens, UniProt P10415); assay: Immunoblot of Bcl-2 degradation in HEK293T cells; type: cell-based; parameters: endogenous in cells; conditions: different concentrations for 16 h, or 1 μM for various time points
Sequence of Bcl-2 (P10415 whole entry): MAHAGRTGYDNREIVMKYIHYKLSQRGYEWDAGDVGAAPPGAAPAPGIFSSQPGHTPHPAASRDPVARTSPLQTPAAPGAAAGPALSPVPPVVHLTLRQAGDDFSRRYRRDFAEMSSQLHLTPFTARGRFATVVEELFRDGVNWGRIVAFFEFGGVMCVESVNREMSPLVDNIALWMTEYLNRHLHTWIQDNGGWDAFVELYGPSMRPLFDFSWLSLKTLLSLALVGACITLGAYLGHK
Procedure: (§3) FIG. 1A depicts immunoblots showing degradation of Bcl-xl and Bcl-2 in HEK293T cells treated with various concentrations of 753b for 16 hours. FIG. 1B depicts immunoblots showing degradation of Bcl-xl and Bcl-2 in HEK293T cells treated with 1 μM 753b for various durations. 3-actin was used as a loading control.
(§4) The potency of 753b in degrading Bcl-xl/2 was evaluated in 293T cells by immunoblots after the cells were treated with different concentrations of 753b for 16 h (FIG. 1A) or after the cells were treated with 1 μM 753b for various time points as indicated (FIG. 1B). Representative immunoblots are shown, and β-actin was used as a loading control.

[4] = target: T1, Bcl-xl; assay: Immunoblot of Bcl-xl degradation in HEK293T cells; type: cell-based; parameters: endogenous in cells; conditions: different concentrations for 16 h, or 1 μM for various time points
Procedure: as §3, §4

[5] = system: normal non-senescent WI-38 fibroblast cells (Non-SnCs); assay: Viability of non-senescent WI-38 fibroblast cells; type: cell-based; conditions: 72 hr incubation; vs ABT263
Description: as §1, §2

[6] = target: T1, Bcl-xl; assay: Immunoblot of Bcl-xl degradation in WI-38 fibroblast cells (Non-SnCs and IR-SnCs); type: cell-based; parameters: degradation of Bcl-xl and Bcl-2 in non-senescent WI-38 fibroblast cells (Non-SnCs) treated with varying concentrations of 753b; endogenous in cells; host or cells: WI-38 fibroblasts (non-senescent and ionizing-radiation-induced senescent); conditions: different concentrations, 16 h, dose-dependent
Description: as §1, §2

[7] = system: IR-induced senescent human umbilical vein endothelial cells (IR-SnC HUVEC); assay: Viability of IR-SnC HUVEC; type: cell-based; conditions: 72 hr incubation; vs ABT263
Procedure: FIGS. 3A to 3B depicts viability of non-SnC human umbilical vein endothelial cells (HUVEC) and IR-induced SnC HUVEC treated with varying concentrations of ABT263 (FIG. 3A) or 753b (FIG. 3B). FIGS. 3C to 3D depict viability of non-SnC renal epithelial cells (REC), IR-induced SnC REC, and replicative senescent REC treated with varying concentrations of ABT263 (FIG. 3C) or 753b (FIG. 3D).
The viability of Non-SnC HUVEC, Non-SnC REC, IR-SnC HUVEC, IR-SnC REC, and Rep-SnC REC was measured 72 hr after they were incubated with increasing concentrations of 753b or ABT263 compared to cells/platelets with vehicle.

Bcl-xl degradation in human platelets [2]: not in human platelets
SMILES: Cc1ncsc1-c1ccc([C@H](C)NC(=O)[C@@H]2C[C@@H](O)CN2C(=O)[C@@H](NC(=O)CCCCCCC(=O)N2CCN(C[C@]3(C)CCC(c4ccc(Cl)cc4)=C(CN4CCN(c5ccc(C(=O)NS(=O)(=O)c6ccc(N[C@H](CCN7CCOCC7)CSc7ccccc7)c(S(=O)(=O)C(F)(F)F)c6)cc5)CC4)C3)CC2)C(C)(C)C)cc1 [Compound 753b]
Senescent cell burden in the liver (SA-β-gal staining) ([1]; postnatal day 90): reduced senescent cell burden
p16 mRNA level in the liver ([1]; postnatal day 90, Q-RT-PCR): inhibited upregulation
p21 mRNA level in the liver ([1]; postnatal day 90, Q-RT-PCR): inhibited upregulation
Bcl-2 degradation [3]: degrades Bcl-xl and Bcl-2 in a dose- and time-dependent manner
Bcl-xl degradation [4]: degrades Bcl-xl and Bcl-2 in a dose- and time-dependent manner
Toxicity (viability) to Non-SnCs compared with ABT263 [5]: less toxic
Bcl-xl degradation in IR-SnCs ([6]; IR-induced senescent WI-38 fibroblast cells): degrades Bcl-xl and Bcl-2 in Non-SnCs and IR-SnCs
Bcl-xl degradation in Non-SnCs ([6]; non-senescent WI-38 fibroblast cells): degrades Bcl-xl and Bcl-2 in Non-SnCs and IR-SnCs
Senolytic potency (viability) against IR-SnC HUVEC compared with ABT263 [7]: more potent senolytic agent
